Values after ≈ are worked out from the molar mass of the structure shown.
Assays:
[1] = Selectivity index, ratio of I50 for mouse J774A1 cells to GI50 for Mycobacterium tuberculosis H37Rv; assay type: toxicity, cell-based, J774.A1; conditions: read-out: Selectivity Index
[2] = Cytotoxicity against mouse J774A1 cells after 24 hrs by neutral red dye uptake assay; assay type: cell-based; conditions: J774.A1, 24 h, read-out: I50
[3] = Cytotoxicity against mouse J774A1 cells assessed as structural organization of DNA at 0.5 to 5 ug/mL after 24 hrs by Comet assay; assay type: cell-based; conditions: j774.a1, 24 h
Salmonella typhimurium [4] = test: Genotoxicity in Salmonella typhimurium T104 Genox (recN2-4) expressing lux operon assessed as S/N ratio at 0.1 to 10 ug/mL measured for 4 hrs with 5 mins interval by vitotox assay; assay type: toxicity, organism-based; conditions: salmonella enterica subsp. enterica serovar typhimurium
[5] = system: Mycobacterium tuberculosis; test: Antimycobacterial activity against Mycobacterium tuberculosis H37Rv infected in mouse J774A1 cells assessed as reduction in bacillary replication at 6.25 ug/mL treatment stated after 24 hrs of infection for 4 days by luminometry; assay type: functional, J774.A1
Salmonella typhimurium [6] = test: Genotoxicity in Salmonella typhimurium Cytox (pr1) expressing lux operon assessed as S/N ratio at 0.1 to 10 ug/mL measured for 4 hrs with 5 mins interval by vitotox assay; assay type: toxicity, organism-based; conditions: salmonella enterica subsp. enterica serovar typhimurium
[7] = system: Mycobacterium tuberculosis; test: Antimycobacterial activity against Mycobacterium tuberculosis H37Rv infected in mouse J774A1 cells assessed as reduction in bacillary replication at 3.13 ug/mL treatment stated after 24 hrs of infection for 4 days by luminometry; assay type: functional, J774.A1
Salmonella typhimurium [8] = test: Genotoxicity in Salmonella typhimurium Cytox (pr1) expressing lux operon assessed as S/N ratio at 0.1 to 10 ug/mL measured for 4 hrs with 5 mins interval by vitotox assay in presence of S9 fraction; assay type: toxicity, organism-based; conditions: salmonella enterica subsp. enterica serovar typhimurium, s9, 4 h
Salmonella typhimurium [9] = test: Genotoxicity in Salmonella typhimurium T104 Genox (recN2-4) expressing lux operon assessed as S/N ratio at 0.1 to 10 ug/mL measured for 4 hrs with 5 mins interval by vitotox assay in presence of S9 fraction; assay type: toxicity, organism-based; conditions: salmonella enterica subsp. enterica serovar typhimurium, s9, 4 h
[10] = system: Mycobacterium tuberculosis; test: Antimycobacterial activity against Mycobacterium tuberculosis H37Rv infected in mouse J774A1 cells assessed as reduction in bacterial load inside the cell at 3.13 ug/mL treatment stated after 24 hrs of infection for 4 days by luminometry; assay type: functional, J774.A1; set-up: scale not given: the % may be the effect or the level left
[11] = system: Mycobacterium tuberculosis; test: Antimycobacterial activity against Mycobacterium tuberculosis H37Rv infected in mouse J774A1 cells assessed as reduction in bacterial load inside the cell at 6.25 ug/mL treatment stated after 24 hrs of infection for 4 days by luminometry; assay type: functional, J774.A1; set-up: scale not given: the % may be the effect or the level left
[12] = system: Mycobacterium tuberculosis; test: Antimycobacterial activity against Mycobacterium tuberculosis H37Rv infected in mouse J774A1 cells assessed as reduction in extracellular bacterial load at 3.13 ug/mL treatment stated after 24 hrs of infection for 4 days by luminometry; assay type: functional, J774.A1
[13] = system: Mycobacterium tuberculosis; test: Antimycobacterial activity against Mycobacterium tuberculosis H37Rv infected in mouse J774A1 cells assessed as reduction in bacillary replication at 12.5 ug/mL treatment stated after 24 hrs of infection for 4 days by luminometry; assay type: functional, J774.A1

Structure (SMILES)	selectivity ratio [1]	IC50 [2] [µg/mL]	other results
CCn1c(=O)c2c3c(cnc2n(CC)c1=O)C(=O)C1=C(C3=O)C2CCC1C2 (stereo not given)	10.8	18.2 (≈ 49.9 µM)	
CCCCCCn1c(=O)c2c3c(cnc2n(CCCCCC)c1=O)C(=O)C1=C(C3=O)C2CCC1C2 (stereo not given)	9.9	12.1 (≈ 25.3 µM)	
Cn1c(=O)c2c3c(cnc2n(C)c1=O)C(=O)C1=C(C3=O)C2CCC1C2 (stereo not given)	9.72	15.4 (≈ 45.5 µM)	
CC(C)n1c(=O)c2c3c(cnc2n(C(C)C)c1=O)C(=O)C1=C(C3=O)C2CCC1CC2	16.1	11.8 (≈ 28.9 µM)	Activity [3]: Non-toxic; Ratio (Salmonella typhimurium [4]): 0.8; inhibition (INH) [5]: 82.3%; Ratio (Salmonella typhimurium [6]): < 1.5; inhibition (INH) [7]: 58.7%; Ratio (Salmonella typhimurium [8]): < 1.5; Ratio (Salmonella typhimurium [9]): 0.8
CCCCCn1c(=O)c2c3c(cnc2n(CCCCC)c1=O)C(=O)C1=C(C3=O)C2CCC1CC2	11	16.4 (≈ 35.3 µM)	
CCCn1c(=O)c2c3c(cnc2n(CCC)c1=O)C(=O)C1=C(C3=O)C2CCC1C2 (stereo not given)	18.7	18.7 (≈ 47.5 µM)	
CCCCn1c(=O)c2c3c(cnc2n(CCCC)c1=O)C(=O)C1=C(C3=O)C2CCC1C2 (stereo not given)	6.51	9.5 (≈ 22.5 µM)	
CCCn1c(=O)c2c3c(cnc2n(CCC)c1=O)C(=O)C1=C(C3=O)C2CCC1CC2	8.5	22 (≈ 54 µM)	
CC(C)n1c(=O)c2c3c(cnc2n(C(C)C)c1=O)C(=O)C1=C(C3=O)C2CCC1C2 (stereo not given)	10.8	9.71 (≈ 24.7 µM)	Activity [3]: Non-toxic; Activity [10]: 57.72%; Ratio (Salmonella typhimurium [4]): 0.8; Ratio (Salmonella typhimurium [6]): < 1.5; Activity [11]: 98.03%; inhibition (INH) [12]: 99%; Ratio (Salmonella typhimurium [8]): < 1.5; Ratio (Salmonella typhimurium [9]): 0.8
Cn1c(=O)c2c3c(cnc2n(C)c1=O)C(=O)C1=C(C3=O)C2CCC1CC2	5.94	16.8 (≈ 47.8 µM)	
CCCCn1c(=O)c2c3c(cnc2n(CCCC)c1=O)C(=O)C1=C(C3=O)C2CCC1CC2	5.36	9.87 (≈ 22.7 µM)	
CCCCCCCn1c(=O)c2c3c(cnc2n(CCCCCCC)c1=O)C(=O)C1=C(C3=O)C2CCC1C2 (stereo not given)	42	26.5 (≈ 52.3 µM)	Activity [3]: Non-toxic; Ratio (Salmonella typhimurium [4]): 0.8; inhibition (INH) [5]: 80.4%; Ratio (Salmonella typhimurium [6]): < 1.5; inhibition (INH) [7]: 65.5%; inhibition (INH) [13]: 91.3%; Ratio (Salmonella typhimurium [8]): < 1.5; Ratio (Salmonella typhimurium [9]): 0.8
CCCCCCn1c(=O)c2c3c(cnc2n(CCCCCC)c1=O)C(=O)C1=C(C3=O)C2CCC1CC2	10.1	13.7 (≈ 27.9 µM)	
CC(C)Cn1c(=O)c2c3c(cnc2n(CC(C)C)c1=O)C(=O)C1=C(C3=O)C2CCC1CC2	4.69	20.4 (≈ 46.9 µM)	
CCCCCn1c(=O)c2c3c(cnc2n(CCCCC)c1=O)C(=O)C1=C(C3=O)C2CCC1C2 (stereo not given)	10.6	13.4 (≈ 29.7 µM)	
CCn1c(=O)c2c3c(cnc2n(CC)c1=O)C(=O)C1=C(C3=O)C2CCC1CC2	7.79	19.9 (≈ 52.4 µM)	
CC(C)CCn1c(=O)c2c3c(cnc2n(CCC(C)C)c1=O)C(=O)C1=C(C3=O)C2CCC1CC2	4.77	23.4 (≈ 50.4 µM)	
CC(C)Cn1c(=O)c2c3c(cnc2n(CC(C)C)c1=O)C(=O)C1=C(C3=O)C2CCC1C2 (stereo not given)	8.06	16.8 (≈ 39.8 µM)	
CCCCCCCn1c(=O)c2c3c(cnc2n(CCCCCCC)c1=O)C(=O)C1=C(C3=O)C2CCC1CC2	24.8	32.8 (≈ 63.1 µM)	Activity [3]: Non-toxic; Ratio (Salmonella typhimurium [4]): 0.8; inhibition (INH) [5]: 68.8%; Ratio (Salmonella typhimurium [6]): < 1.5; inhibition (INH) [13]: 92%; Ratio (Salmonella typhimurium [8]): < 1.5; Ratio (Salmonella typhimurium [9]): 0.8
CC(C)CCn1c(=O)c2c3c(cnc2n(CCC(C)C)c1=O)C(=O)C1=C(C3=O)C2CCC1C2 (stereo not given)	9.32	22.5 (≈ 50 µM)	

Reference: ChEMBL document CHEMBL3352001, “2,4-Dialkyl-8,9,10,11-tetrahydrobenzo[g]pyrimido[4,5-c]isoquinoline-1,3,7,12(2H,4H)-tetraones as new leads against Mycobacterium tuberculosis” (Eur J Med Chem, 2014)
